± gives the expanded uncertainty stated by the source. Blank lines part the entries; values can stand above or below the molecule they belong to.
Settings: Liquid, Closed cell (Static) method

SMILES: CC(C)C [2-methylpropane]
vapor or sublimation pressure (307.86 K): 459.8 ± 2.3 kPa

SMILES: CSC [2-thiapropane]
vapor or sublimation pressure (307.86 K): 91.7 ± 1.3 kPa
vapor or sublimation pressure (312.58 K): 107.7 ± 1.3 kPa
vapor or sublimation pressure (312.59 K): 106.2 ± 1.3 kPa
vapor or sublimation pressure (312.6 K): 107.4 ± 1.3 kPa
vapor or sublimation pressure (317.32 K): 126 ± 1.3 kPa
vapor or sublimation pressure (317.35 K): 126 ± 1.3 kPa

SMILES: C/C=C/C [(E)-2-butene]
vapor or sublimation pressure (317.29 K): 413.8 ± 2.2 kPa

SMILES: C/C=C\C [(Z)-2-butene]
vapor or sublimation pressure (312.59 K): 332.2 ± 1.9 kPa

Next, values leading:

vapor or sublimation pressure (312.57 K): 454.5 ± 2.3 kPa
SMILES: C=CCC [1-butene]

vapor or sublimation pressure (312.6 K): 465.3 ± 2.3 kPa
SMILES: C=C(C)C [2-methylpropene]

vapor or sublimation pressure (317.47 K): 425.7 ± 2.1 kPa
SMILES: CCCC [butane]

Reference: the NIST ThermoML archive (doi:10.1016/j.fluid.2008.01.030)
